Consider one compound from PMC7901650, “Garcinoic Acid Is a Natural and Selective Agonist of Pregnane X Receptor” (Journal of Medicinal Chemistry, 2020).

What all share (assay type): cell-based
In one series the test system is HepaRG cells. Put plainly: PXR protein expression in HepaRG cells. The note with it: 24 h, 1 to 25 μM, compared with HepG2. The procedure: (§1) HepG2 (human hepatoma cell line; ATCC HB-8065, Manassas, VA) and HepaRG (HPRGC10, Thermo Fisher Scientific) cells were maintained in culture as previously described.[47] Experiments were performed between passages 2 and 10. Cell viability, clonogenic activity, and apoptotic cell death were assessed as previously described (see Figure S2).[58],[59] HT29 human colorectal adenocarcinoma cells (ATCC HTB-38) and its mucous-secreting HT29-MTX subclone (Sigma-Aldrich) were used as intestinal cell models. HT29 cells were cultured in RPMI (Invitrogen; Life Technologies) containing 10% FBS (v/v) and 1% (v/v) L-glutamine. HT29-MTX cells (from Sigma-Aldrich) were cultured in DMEM supplemented with 2 mM glutamine, 1% nonessential amino acids, and 10% FBS. […]
(§2) Cells were harvested and lysed in ice-cold cell lysis buffer (Cell Signaling Technology) and 20 μL/mL protease inhibitor cocktail (Roche). […] After incubation in ice for 1 h and centrifugation (12 000 rpm for 20 min at 4 °C), the supernatant was recovered, and total proteins were quantified by the BCA assay kit (Pierce, Thermo Fisher Scientific). […] The band intensity was analyzed using Gel Pro analyzer Software. […]
PXR protein was assessed by immunoblot (10 µg total protein loading) in HepaRG cells treated for 24 hrs with GA at concentrations between 1 and 25 μM (A). […]

The subject of another series is HT29. Nature of the series: PXR and CYP3A4 protein expression in HT29 cells. The note with it: HT29, 24 h, 1 to 25 μM. The procedure:
as §1, §2
(§3) PXR and CYP3A4 protein was assessed by immunoblot (20 µg total protein loading) in HT29 cells (from ATCC) were cultured in RPMI (Invitrogen; Life Technologies) containing 10% FBS ( v/v) and 1% ( v/v) L-glutamine. […]

A further series deals with HT29-MTX. Put plainly: PXR and CYP3A4 protein expression in HT29-MTX cells. The note with it: 24 h, 1 to 25 μM. The procedure: as §1, §2, §3

Regarding `C/C(=C\CC/C(C)=C/CC[C@]1(C)CCc2cc(O)cc(C)c2O1)CC/C=C(\C)C(=O)O` [GA (1), (2E,6E,10E)-13-[(2R)-6-hydroxy-2,8-dimethyl-chroman-2-yl]-2,6,10-trimethyltrideca-2,6,10-trienoic acid], the PXR protein response result in the series with HepaRG cells is “Even higher”. Also, the “PXR and CYP3A4 protein expression” value with HT29 and in the series with HT29-MTX was “increase” each time.
